Experimental data as given in patent publication US20080220103A1, “METHOD FOR TREATING/CONTROLLING/KILLING FUNGI AND BACTERIA ON LIVING ANIMALS” (priority 2005, published 2008).
Converted amounts (≈) assume the structure as drawn.

Columns and labels:
[1] = system: All Yeasts; experiment: Minimum fungicidal concentration, yeasts; type: cell-based
Experimental: Minimum fungicidal concentration (MFC): The minimum fungicidal concentrations of various agents were determined using the technique described by Canton et al. (Antimicrob Agents Chemother. 2004 8:2477-82). In that method, fungal conidia were collected following growth on potato dextrose agar (PDA) plates and were used to inoculate 96-well plates containing different concentrations of agents. Following incubation at 35° C. for 4 days (for dermatophytes) or 24 hours (for yeast), wells showing no visible growth were cultured to determine the MFC (defined as the lowest concentration of a given agent that kills>99.999% of fungal conidia or spores). The MFC value represents the level of the agent at which spores or conidia were killed.

[2] = system: terbinafine-resistant T. rubrum; experiment: MIC against terbinafine-resistant isolates; type: cell-based, Trichophyton rubrum
Experimental: Minimum Inhibitory Concentration (MIC): Minimum inhibitory concentrations of synthetic and semisynthetic and natural products against dermatophytes were determined using a modification of the Clinical Laboratory Standards Institute (CLSI, formerly National Committee of Clinical Laboratory Standards, NCCLS) M38A standard method for dermatophytes, while MIC of these agents against Candida species were determined using the CLSI M27-A2 methodology. The method used to determine the MIC against bacteria was based on the CLSI document M7-A7.
For dermatophytes, serial dilutions of terbinafine, tolnaftate were prepared in a range of 0.004-2 μg/ml, while for miconazole concentrations ranged between 0.015-8 μg/ml. Finally, for essential oils, the concentrations tested were between 0.03-16 μg/ml. The only exception was tea tree oil where dilutions were prepared in a range of 0.0078-4 μg/ml. The MIC was read at 4 days post inoculation and defined as the lowest concentration of an agent to inhibit 80% of fungal growth as compared to the growth control (Table 2).

[3] = Trichophyton rubrum, terbinafine-resistant T. rubrum, n = 11

Row | MIC ([2]; Trichophyton rubrum, T. rubrum MRL 666) [µg/mL] | MIC ([2]; Trichophyton rubrum, T. rubrum MRL 670) [µg/mL] | MIC ([2]; Trichophyton rubrum, T. rubrum MRL 671) [µg/mL] | MIC ([2]; Trichophyton rubrum, T. rubrum MRL 1386) [µg/mL] | MIC ([2]; Trichophyton rubrum, T. rubrum MRL 1806) [µg/mL] | MIC ([2]; Trichophyton rubrum, T. rubrum MRL 1807) [µg/mL] | MIC ([2]; Trichophyton rubrum, T. rubrum MRL 1808) [µg/mL] | MIC ([2]; Trichophyton rubrum, T. rubrum MRL 1809) [µg/mL] | MIC ([2]; Trichophyton rubrum, T. rubrum MRL 1810) [µg/mL] | MIC ([2]; Trichophyton rubrum, T. rubrum MRL 2499) [µg/mL] | MIC ([2]; Trichophyton rubrum, T. rubrum MRL 2727) [µg/mL] | MIC50 [2, 3] [µg/mL] | MIC90 [2, 3] [µg/mL] | MIC Range ([2]; terbinafine-resistant T. rubrum, n = 11) [µg/mL] | Compound | MFC Range [1] [µg/mL]
1 |  |  |  |  |  |  |  |  |  |  |  |  |  |  | Clc1ccc(COC(Cn2ccnc2)c2ccc(Cl)cc2Cl)c(Cl)c1 (stereo not drawn) [Miconazole, miconazole] | 0.5 to 2
2 | 16 (≈ 54.9 µM) | 16 (≈ 54.9 µM) | 4 (≈ 13.7 µM) | 4 (≈ 13.7 µM) | 4 (≈ 13.7 µM) | 4 (≈ 13.7 µM) | 16 (≈ 54.9 µM) | 16 (≈ 54.9 µM) | 4 (≈ 13.7 µM) | 4 (≈ 13.7 µM) | 2 (≈ 6.86 µM) | 4 (≈ 13.7 µM) | 16 (≈ 54.9 µM) | 2 to 16 | CN(C/C=C/C#CC(C)(C)C)Cc1cccc2ccccc12 [Terbinafine, terbinafine] | 
